Source: US20060194268A1, “Method for measuring spinorphin” (priority 2005, published 2006)
No end group written: not given here.

Legend:
[1] = tested on: spinorphin rabbit antibody; test: Competitive enzyme immunoassay, cross reactivity of spinorphin analogues; format: binding; conditions: for detection by the method of the present invention (reaction with spinorphin antibody): analogue as competitive compound for immobilized spinorphin; for IC50: competition with spinorphin immobilized on plate for spinorphin rabbit antibody; for Cross reactivity: ratio of spinorphin relative to IC50
in vitro = conditions: bovine, cerebrospinal or other body fluid
Protocol: A test was carried out to confirm whether the activity of spinorphin could be retained through the period from the step (B) to the step (E). Spinorphin (1 μg/mL) in TBS was dissolved in bovine cerebrospinal fluid. The cerebrospinal fluid was allowed to stand at room temperature for various time periods. The reaction was stopped, and the amount of spinorphin was measured according to the method mentioned in the above (2).

Substance | detection by the method of the present invention (reaction with spinorphin antibody) [1] | further results
LVVYPWT [Spinorphin, Leu-Val-Val-Tyr-Pro-Trp-Thr] |  | IC50 [1]: 0.00064 ± 0.00061 µg/mL; Cross reactivity [1]: 1; remaining at 1 h, 1 μg/mL (in vitro): 98.8 ± 0.98%
VYPWT |  | IC50 [1]: >10 µg/mL; Cross reactivity [1]: <6.4 × 10^−5
VVYPWT |  | IC50 [1]: 1.6 ± 5 µg/mL; Cross reactivity [1]: 0.0004
LVVYP [spinorphin analogue] | could not be detected | 
Pro-Trp-Thr [PWT] | could not be detected | 
YPWT [hemorphin-4] | could not be detected | 
VVYPW [tynorphin] | could not be detected | 
LVVYPW [spinorphin analogue] | could not be detected | 

Further lines, with some results ahead:

detection by the method of the present invention (reaction with spinorphin antibody) [1] | Substance | further results
could not be detected | VYP | 
could not be detected | VYPW [spinorphin analogue] | 
could not be detected | YPW | 
could not be detected | VVYP [spinorphin analogue] | 
